Reference: patent publication US6861529B2, “Cycloalkypyrrole-3-carboxylic acid derivatives and heterocycloalkylpyrrole-3-carboxylic acid derivatives” (Pfizer Inc, priority 2001, dated 2005)
pKi: −log10 of the molar value.

Molecular target: benzodiazepine site of the GABAA receptor
Assay: Binding assay (3H-Ro15-1788 displacement, rat cortical tissue homogenate)
Settings: 0.5 nM 3H-Ro15-1788 [3H-Flumazenil], 30 min at 4° C., Cheng-Prussof equation

Work on `CC1CCc2[nH]cc(C(=O)Nc3ccccn3)c2C(=O)C1` (stereo not drawn) [Example 2, 6-Methyl-4-oxo-1,4,5,6,7,8-hexahydro-cydohepta[b]pyrrole-3-carboxylic acid pyridin-2-ylamide] yielded a pKi of 8.70.

`CC(C)C1CCc2[nH]cc(C(=O)Nc3ccccn3)c2C(=O)C1` (stereo not drawn) [Example 3, 6-Isopropyl-4-oxo-1,4,5,6,7,8-hexahydro-cyclohepta[b]pyrrole-3-carboxylic acid pyridin-2-ylamide] gave a pKi of 9.00.

In the case of `O=C(Nc1ccccn1)c1c[nH]c2c1C(=O)CC(c1ccc(F)cc1)CC2` (stereo not drawn) [Example 4, 6-(4-Fluoro-phenyl)-4-oxo-1,4,5,6,7,8-hexahydrocyclohepta[b]pyrrole-3-carboxylic acid pyridin-2-ylamide], the pKi was 8.15.

`COc1ccc(C2CCc3[nH]cc(C(=O)Nc4ccccn4)c3C(=O)C2)cc1F` (stereo not drawn) [Example 5, 6-(3-Fluoro-4-methoxy-phenyl)-4-oxo-1,4,5,6,7,8-hexahydro-cyclohepta[b]pyrrole-3carboxylic acid pyridin-2-ylamide] was tested, and the pKi was 8.10.

For `O=C(Nc1ccccn1)c1c[nH]c2c1C(=O)C1CN(Cc3ccccc3)CC1CC2` (stereo not drawn) [Example 6, 6-Benzyl-4-oxo-4,4a,5,6,7,7a,8,9-octahydro-1H-1,6-diaza-cyclopenta[f]azulene-3-carboxylic acid pyridin-2-ylamide], the pKi was 8.40.

Work on `O=C(Nc1ccccn1)c1c[nH]c2c1C(=O)C1CNCC1CC2` (stereo not drawn) [Example 7, 4-Oxo-4,4a,5,6,7,7a,8,9-octahydro-1H-1,6-diaza-cyclopenta[f]azulene-3-carboxylic acid pyridin-2-ylamide] yielded a pKi of 8.15.

With `CN1CC2CCc3[nH]cc(C(=O)Nc4ccccn4)c3C(=O)C2C1` (stereo not drawn) [Example 8, 6-Methyl-4-oxo-4,4a,5,6,7,7a,8,9-octahydro-1H-1,6-diaza-cyclopenta[f]azulene-3-carboxylic acid pyridin-2-ylamide] the pKi was 8.10.

For `CN(C)CC1CCc2[nH]cc(C(=O)Nc3ccccn3)c2C(=O)C1` (stereo not drawn) [Example 9, 6-Dimethylaminomethyl-4-oxo-1,4,5,6,7,8-hexahydro-cyclohepta[b]pyrrole-3-carboxylic acid pyridin-2-ylamide], the pKi was 7.64.

With `O=C(Nc1ccccn1)C1C=NC2=C1C(Nc1ccccn1)CCCC2` (stereo not drawn) [Example 10, 4-(Pyridin-2-ylamino)-3,4,5,6,7,8-hexahydro-cyclohepta[b]pyrrole-3-carboxylic acid pyridin-2-ylamide] the pKi was 7.62.
